The text below walks through data of patent EP0976754B1, “REMEDIES/PREVENTIVES FOR RESPIRATORY DISEASES” (POLA CHEMICAL INDUSTRIES, INC., priority 1997, dated 1998).

In assay [1] the test system is trachea. Description: Tracheodilative effect (in vitro), Magnus method, trachea strips contracted with carbachol. As to conditions: Cavia porcellus; relaxation of guinea pig trachea strips contracted with 1 x 10^-6 M carbachol; maximum relaxation by 10^-4 M isoproterenol = 100%; read-out: pIC50 value Carbachol (converted). How it is done:
(§1) With respect to Compound 2, Compound 5, Compound 6, Compound 7 and Compound 16, the tracheodilative effect useful in treatment and/or prevention of respiratory diseases such as asthma was investigated by the Magnus method. A male Hartley albino guinea pig (250 to 300 g) was blow on the head and exsanguinated to death to enucleate its trachea. Strip specimens were prepared from the trachea. Each of the specimens was suspended in a Magnus tube filled with a Krebs-Henseleit solution kept at 37°C with supply of a mixed gas (95% O2, 5% CO2). A static tension of 1.0 g was loaded to record an isometric tension. Each of test compounds was cumulatively administered to the specimens separately contracted with 1 x 10^-6 M carbachol and 3 x 10^-6 M histamine to investigate its relaxing effect. After the cumulative administration, 10^-4 M isoproterenol was administered to identify the maximum relaxing effect on the trachea specimen. The maximum relaxation was regarded as 100%, and a negative logarithmic value of the concentration of the test compound, at which the specimen was relaxed by 50%, was calculated out, thereby regarding it as a pIC50 value. […]

For assay [2], the system named is trachea. Description: Tracheodilative effect (in vitro), Magnus method, trachea strips contracted with histamine. As to conditions: Cavia porcellus; relaxation of guinea pig trachea strips contracted with 3 x 10^-6 M histamine; maximum relaxation by 10^-4 M isoproterenol = 100%; read-out: pIC50 value Histamine (converted). As for the experimental part:
as §1

The subject of assay [3] is airway-constriction reaction. Description: Inhibitory effect on airway-constriction reaction (in vivo), modified Konzet-Lössler method, acetylcholine-elicited. The settings on record: Cavia porcellus, iv; test compound 100 mg/2 ml/kg in 1% CMC through esophageal cannula; acetylcholine 20 µg/kg i.v. at 15, 30, 60 and 120 minutes; anesthetized guinea pigs; read-out: Inhibitory rate (%) Acetylcholine. How it is done:
(§2) A group of 6 male Hartley albino guinea pigs (250 to 350 g) was anesthetized with pentobarbital, and the tracheae, esophagi, carotid arteries and jugular veins thereof were cannulated. The experiment was performed by connecting the tracheotomic cannula to a respirator incorporated into a circuit of a bronchospasm transducer (modified Konzet-Lössler method), arresting the spontaneous respiration of each guinea pig with choline chloride succinate (1 mg/kg i.v.) and then practicing artificial ventilation, and an airway-constriction reaction was determined by using an overflow rate of ventilation as an index. Acetylcholine (20 µg/kg) or histamine (20 µg/kg) was intravenously administered upon elapsed time of 15, 30, 60 and 120 minutes after a test compound (100 mg/2 ml/kg) suspended in 1% CMC was administered through the esophageal cannula, thereby observing the airway-constriction reaction elicited. For the sake of comparison, theophylline (100 mg/2 ml/kg) commonly and widely used in the treatment for asthma was used. The inhibitory effect on the airway-constriction reaction was expressed by a value calculated as an inhibitory rate (%). It turns out that all the compounds according to the present invention have an excellent inhibitory effect on airway constriction.

The subject of assay [4] is airway-constriction reaction. Description: Inhibitory effect on airway-constriction reaction (in vivo), modified Konzet-Lössler method, histamine-elicited. The settings on record: Cavia porcellus, iv; test compound 100 mg/2 ml/kg in 1% CMC through esophageal cannula; histamine 20 µg/kg i.v. at 15, 30, 60 and 120 minutes; anesthetized guinea pigs; read-out: Inhibitory rate (%) Histamine. How it is done: as §2

Assay [5] relates to trachea. Description: Tracheodilative effect (in vitro), Magnus method, enucleated trachea contracted with LTD4. The settings on record: Cavia porcellus; relaxation of enucleated guinea pig trachea contracted with LTD4 3 x 10^-8 M; read-out: pIC50 value LTD4 (converted). As for the experimental part: as §1
The pIC50 values of the compounds according to the present invention on contraction by LTD4 (concentration: 3 x 10^-8 M) were determined by using the enucleated trachea in accordance with the Magnus method in the same manner as in Test Example 1. It turns out that the compounds according to the present invention are effective on the contraction by this agent.

Consider `CCC(C)N1CCc2cnc3c(C#N)cnn3c21` (stereo not shown) [Compound 2, 8-sec-butyl-3-cyano-6,7-dihydro-8H-pyrrolo[3,2-e]pyrazolo[1,5-a]pyrimidine], for which the IC50 was 19.1 µM in the assay with trachea [1] and 6.31 µM with trachea [2]. For the same compound, the values for the inhibition in vivo at 100 mg/kg in assay [3] and in assay [4] were 50% and 52.2%, respectively.
Regarding `CCC(C)N1CCc2c(N)nc3c(C#N)cnn3c21` (stereo not shown) [Compound 7, 5-amino-8-sec-butyl-3-cyano-6,7-dihydro-8H-pyrrolo[3,2-e]pyrazolo[1,5-a]pyrimidine], the IC50 was 18.2 µM in the assay with trachea [1], 15.5 µM in the assay on trachea [2] and 3.72 µM in the assay on trachea [5]. Further, the inhibition in vivo at 100 mg/kg was found to be 36.5% in assay [3] and 49.8% in assay [4].
Consider `N#Cc1cnn2c3c(cnc12)CCN3C1CCCC1` [Compound 1, 3-cyano-8-cyclopentyl-6,7-dihydro-8H-pyrrolo[3,2-e]pyrazolo[1,5-a]pyrimidine], for which the inhibition in vivo at 100 mg/kg turned out to be 33.4% in assay [3] and 22.2% in assay [4].
On the same counts, the results for `CC(C)(C)N1CCc2cnc3c(C#N)cnn3c21` [Compound 14, 8-tert-butyl-3-cyano-6,7-dihydro-8H-pyrrolo[3,2-e]pyrazolo[1,5-a]pyrimidine] are 40.4% and 8.7%.
In the case of `Cn1c(=O)c2[nH]cnc2n(C)c1=O` [Theophylline, theophylline, reference compound], the IC50 in the assay on trachea [1] is 2950 µM; in the assay with trachea [2], 977 µM; in the assay on trachea [5], 112 µM. Further, the inhibition in vivo at 100 mg/kg in assay [3] came to 39.5%; in assay [4], 37.7%.
As to `CCC(C)N1CCc2c(Cl)nc3c(C#N)cnn3c21` (stereo not shown) [Compound 4, 8-sec-butyl-5-chloro-3-cyano-6,7-dihydro-8H-pyrrolo[3,2-e]pyrazolo[1,5-a]pyrimidine], the inhibition in vivo at 100 mg/kg in assay [3] was determined as 33.2%; in assay [4], 24.7%.
For `CC(C)(C)N1CCc2c(Cl)nc3c(C#N)cnn3c21` [Compound 15, 8-tert-butyl-5-chloro-3-cyano-6,7-dihydro-8H-pyrrolo[3,2-e]pyrazolo[1,5-a]pyrimidine], in that order: 36.5% and 25.8%.
As to `CC(C)(C)N1CCc2c(N)nc3c(C#N)cnn3c21` [Compound 16, 5-amino-8-tert-butyl-3-cyano-6,7-dihydro-8H-pyrrolo[3,2-e]pyrazolo[1,5-a]pyrimidine], the IC50 in the assay on trachea [1] is 23.4 µM; with trachea [2] it was 16.2 µM.
On to `N#Cc1cnn2c3c(c(N)nc12)CCN3C1CCCC1` [Compound 5, 5-amino-3-cyano-8-cyclopentyl-6,7-dihydro-8H-pyrrolo[3,2-e]pyrazolo[1,5-a]pyrimidine], for which the IC50 is 18.6 µM in the assay on trachea [1], 12.6 µM in the assay on trachea [2] and 4.07 µM in the assay on trachea [5]. Further, the inhibition in vivo at 100 mg/kg in assay [3] came to 32.1%; in assay [4] it was 52.9%.
On to `N#Cc1cnn2c3c(c(Cl)nc12)CCN3C1CCCC1` [Compound 3, 5-chloro-3-cyano-8-cyclopentyl-6,7-dihydro-8H-pyrrolo[3,2-e]pyrazolo[1,5-a]pyrimidine], for which the inhibition in vivo at 100 mg/kg in assay [3] came out at 22.8%; in assay [4], 7.7%.
Consider `N#Cc1cnn2c3c(c(N)nc12)CCN3C1CCCCC1` [Compound 6, 5-amino-3-cyano-8-cyclohexyl-6,7-dihydro-8H-pyrrolo[3,2-e]pyrazolo[1,5-a]pyrimidine], for which the IC50 was 22.4 µM in the assay with trachea [1], 16.2 µM with trachea [2] and 11.2 µM in the assay on trachea [5].
